Assay results published in US20250171426A1, “PYRIMIDINEDIONE-BASED COMPOUNDS AS AXL, C-MET, AND MER INHIBITORS AND METHODS OF USE THEREOF” (CMG Pharmaceutical Co., Ltd., priority 2022, published 2025).

Assays:
[1] = target: c-MET (Homo sapiens, UniProt P08581); experiment: Enzymatic assay (ADP-Glo kinase reaction), c-MET; format: biochemical; conditions: 10 μM ATP, 60 min, ADP-GLO luminescence
How it was run: (§1)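 For both AXL and c-MET, reactions in tyrosine kinase buffer used 0.2 μg/μL poly(Glu4,Tyr1) and 10 μM ATP with serially diluted inhibitor, 60 min at room temperature. ADP formed was read by ADP-Glo luminescence after 40 min reagent incubation.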

[2] = target: T1, AXL (Homo sapiens, UniProt P30530); experiment: Enzymatic assay (ADP-Glo kinase reaction), AXL; format: biochemical; conditions: 10 μM ATP, 60 min, ADP-GLO luminescence
T1 sequence (P30530 26-894): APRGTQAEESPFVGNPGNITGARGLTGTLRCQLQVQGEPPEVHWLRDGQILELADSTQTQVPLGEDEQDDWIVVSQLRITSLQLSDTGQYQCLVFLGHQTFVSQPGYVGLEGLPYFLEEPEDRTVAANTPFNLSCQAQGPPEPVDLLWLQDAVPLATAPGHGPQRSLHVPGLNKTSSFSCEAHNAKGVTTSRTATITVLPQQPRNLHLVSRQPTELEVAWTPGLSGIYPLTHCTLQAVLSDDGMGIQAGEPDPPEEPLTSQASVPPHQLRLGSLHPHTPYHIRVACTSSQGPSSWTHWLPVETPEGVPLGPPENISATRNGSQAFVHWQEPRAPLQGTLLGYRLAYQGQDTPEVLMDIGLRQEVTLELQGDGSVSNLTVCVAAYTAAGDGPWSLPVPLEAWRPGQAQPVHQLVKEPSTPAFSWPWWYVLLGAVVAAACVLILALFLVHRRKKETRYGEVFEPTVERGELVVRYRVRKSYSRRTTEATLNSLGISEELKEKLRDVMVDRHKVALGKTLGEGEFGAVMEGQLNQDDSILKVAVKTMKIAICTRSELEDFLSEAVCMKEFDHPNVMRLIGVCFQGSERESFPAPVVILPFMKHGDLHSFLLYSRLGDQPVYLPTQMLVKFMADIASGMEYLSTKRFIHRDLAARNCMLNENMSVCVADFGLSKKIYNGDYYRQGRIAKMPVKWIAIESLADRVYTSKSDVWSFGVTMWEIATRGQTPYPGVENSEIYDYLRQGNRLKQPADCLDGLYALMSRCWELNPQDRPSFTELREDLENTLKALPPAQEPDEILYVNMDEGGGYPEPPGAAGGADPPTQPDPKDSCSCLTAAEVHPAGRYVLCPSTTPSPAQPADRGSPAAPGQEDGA
How it was run: as §1

[3] = target: T2, MER (Homo sapiens, UniProt Q12866); experiment: Enzymatic assay (ADP-Glo kinase reaction), MER; format: biochemical; conditions: 10 μM ATP, 60 min, ADP-GLO luminescence
T2 sequence (Q12866 21-999): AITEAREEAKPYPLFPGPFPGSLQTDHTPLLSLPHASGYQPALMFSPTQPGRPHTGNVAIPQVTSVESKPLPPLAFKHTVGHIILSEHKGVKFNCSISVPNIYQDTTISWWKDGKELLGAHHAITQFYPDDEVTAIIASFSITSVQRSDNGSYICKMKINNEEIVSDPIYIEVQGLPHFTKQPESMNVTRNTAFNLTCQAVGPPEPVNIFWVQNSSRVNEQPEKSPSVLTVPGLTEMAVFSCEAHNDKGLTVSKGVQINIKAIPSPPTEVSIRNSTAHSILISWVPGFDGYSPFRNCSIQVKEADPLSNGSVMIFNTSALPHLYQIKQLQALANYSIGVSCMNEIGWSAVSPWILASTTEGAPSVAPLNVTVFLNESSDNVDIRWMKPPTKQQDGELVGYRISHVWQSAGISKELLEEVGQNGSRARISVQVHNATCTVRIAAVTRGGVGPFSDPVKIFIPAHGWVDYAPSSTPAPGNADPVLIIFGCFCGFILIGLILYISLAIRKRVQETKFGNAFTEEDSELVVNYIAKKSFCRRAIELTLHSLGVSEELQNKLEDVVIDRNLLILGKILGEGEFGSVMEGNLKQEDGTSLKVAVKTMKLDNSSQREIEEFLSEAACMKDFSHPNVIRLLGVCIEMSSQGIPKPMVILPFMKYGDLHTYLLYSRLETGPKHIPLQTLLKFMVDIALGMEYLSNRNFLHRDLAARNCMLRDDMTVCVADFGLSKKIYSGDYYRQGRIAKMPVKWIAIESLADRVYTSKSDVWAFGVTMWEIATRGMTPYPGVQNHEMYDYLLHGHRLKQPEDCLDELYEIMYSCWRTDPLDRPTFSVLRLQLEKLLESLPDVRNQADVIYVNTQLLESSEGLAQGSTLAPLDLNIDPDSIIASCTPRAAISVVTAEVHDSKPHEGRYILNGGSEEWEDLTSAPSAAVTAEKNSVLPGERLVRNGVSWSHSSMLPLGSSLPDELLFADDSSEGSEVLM
How it was run: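 ADP-Glo luminescence assay of MER in tyrosine kinase buffer with 0.2 μg/μL poly(Glu4,Tyr1) substrate and 10 μM ATP. Serially diluted inhibitor reacted 60 min at room temperature. IC50 taken from luminescence after ADP-Glo and detection steps.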

[4] = tested on: HCC827OR; experiment: Cell viability assay (CellTiter-Glo 2.0), osimertinib-resistant HCC827/OR cells; format: cell-based, human; conditions: HCC827/OR vs HCC827
Description: To explore c-MET and AXL mechanisms of EGFR TKI resistance, resistant cells of the EGFR TKI hypersensitive EGFR exon 19 mutant NSCLC cell line, HCC827 and PC9 were generated by exposing these cells to increasing concentrations of EGFR TKI for over 3 months.
Gefitinib-resistant cells were referred to as HCC827/GR. […] Osimertinib-resistant cells were referred to as HCC827/OR.

Sequence of c-MET (P08581 25-1390): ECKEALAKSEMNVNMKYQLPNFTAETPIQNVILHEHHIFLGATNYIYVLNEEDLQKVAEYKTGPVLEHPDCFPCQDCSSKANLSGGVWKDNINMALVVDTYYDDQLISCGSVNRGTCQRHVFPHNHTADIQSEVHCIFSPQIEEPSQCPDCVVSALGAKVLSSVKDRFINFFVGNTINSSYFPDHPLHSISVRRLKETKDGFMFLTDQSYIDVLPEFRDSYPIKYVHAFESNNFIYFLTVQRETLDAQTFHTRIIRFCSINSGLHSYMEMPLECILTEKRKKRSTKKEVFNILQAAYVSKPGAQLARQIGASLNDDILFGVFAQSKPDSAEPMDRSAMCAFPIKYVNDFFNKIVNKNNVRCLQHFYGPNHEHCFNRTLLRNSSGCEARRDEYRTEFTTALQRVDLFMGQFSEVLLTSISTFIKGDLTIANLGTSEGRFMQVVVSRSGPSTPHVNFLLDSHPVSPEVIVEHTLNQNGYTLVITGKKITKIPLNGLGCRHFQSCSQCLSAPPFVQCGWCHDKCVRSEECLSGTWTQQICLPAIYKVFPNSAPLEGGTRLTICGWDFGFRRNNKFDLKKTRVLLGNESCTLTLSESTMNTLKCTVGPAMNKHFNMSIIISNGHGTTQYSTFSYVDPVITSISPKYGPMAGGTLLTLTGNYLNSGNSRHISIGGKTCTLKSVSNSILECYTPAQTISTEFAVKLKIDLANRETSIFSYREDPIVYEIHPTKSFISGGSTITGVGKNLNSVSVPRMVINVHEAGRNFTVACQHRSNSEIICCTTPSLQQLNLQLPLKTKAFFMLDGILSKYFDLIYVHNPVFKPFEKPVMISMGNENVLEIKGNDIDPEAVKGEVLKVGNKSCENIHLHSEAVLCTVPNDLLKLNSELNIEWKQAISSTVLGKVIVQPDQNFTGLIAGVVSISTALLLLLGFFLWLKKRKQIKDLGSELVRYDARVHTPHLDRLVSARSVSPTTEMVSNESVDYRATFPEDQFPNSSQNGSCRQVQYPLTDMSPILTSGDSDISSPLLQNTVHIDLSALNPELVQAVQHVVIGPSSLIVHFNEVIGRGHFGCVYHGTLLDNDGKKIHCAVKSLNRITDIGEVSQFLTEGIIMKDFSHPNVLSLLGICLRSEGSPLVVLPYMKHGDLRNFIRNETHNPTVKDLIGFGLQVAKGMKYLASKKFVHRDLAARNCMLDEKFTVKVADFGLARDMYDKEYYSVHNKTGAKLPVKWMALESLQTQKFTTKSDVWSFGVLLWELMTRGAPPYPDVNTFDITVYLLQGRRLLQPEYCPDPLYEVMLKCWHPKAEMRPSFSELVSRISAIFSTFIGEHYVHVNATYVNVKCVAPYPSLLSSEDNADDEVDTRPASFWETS

Row | Compound | IC50 [1] [nM] | IC50 [2] [nM] | IC50 [3] [nM] | fold higher resistance than the parental cells, HCC827/OR [4]
1 | CN1CCC(CC#Cc2c(Oc3ccc(NC(=O)c4cn(CC(=O)N(C)C)c(=O)n(-c5ccc(F)cc5)c4=O)cc3F)ccnc2N)CC1 [Example 37, N-(4-((2-amino-3-(3-(1-methylpiperidin-4-yl)prop-1-yn-1-yl)pyridin-4-yl)oxy)-3-fluorophenyl)-1-(2-(dimethylamino)-2-oxoethyl)-3-(4-fluorophenyl)-2,4-dioxo-1,2,3,4-tetrahydropyrimidine-5-carboxamide] | < 10000 | < 100 | < 10 | 
2 | C=CCn1cc(C(=O)Nc2ccc(Oc3ccnc(N)c3C#CC(C)(C)N3CCN(C)CC3)c(F)c2)c(=O)n(CC=C)c1=O [Example 68, 1,3-diallyl-N-(4-(2-amino-3-(3-methyl-3-(4-methylpiperazin-1-yl)but-1-ynyl)pyridin-4-yloxy)-3-fluorophenyl)-2,4-dioxo-1,2,3,4-tetrahydropyrimidine-5-carboxamide] | < 1000 | < 1000 | < 100 | 
3 | CN(C)C(=O)Cn1cc(C(=O)Nc2ccc(Oc3ccnc(N)c3C#CC(C)(C)N3CCNCC3)c(F)c2)c(=O)n(-c2ccc(F)cc2)c1=O [Example 35, N-(4-((2-amino-3-(3-methyl-3-(piperazin-1-yl)but-1-yn-1-yl)pyridin-4-yl)oxy)-3-fluorophenyl)-1-(2-(dimethylamino)-2-oxoethyl)-3-(4-fluorophenyl)-2,4-dioxo-1,2,3,4-tetrahydropyrimidine-5-carboxamide] | < 10000 | < 10000 | < 100 | 
4 | CC(C)(C#Cc1c(Oc2ccc(NC(=O)c3cn(C4CCOCC4)c(=O)n(-c4ccc(F)cc4)c3=O)cc2F)ccnc1N)N1CCOCC1 [Example 55, N-(4-(2-amino-3-(3-methyl-3-morpholinobut-1-ynyl)pyridin-4-yloxy)-3-fluorophenyl)-3-(4-fluorophenyl)-2,4-dioxo-1-(tetrahydro-2H-pyran-4-yl)-1,2,3,4-tetrahydropyrimidine-5-carboxamide] | < 100 | < 100 | < 100 | 
5 | C=CC(=O)Nc1cc(Nc2nccc(-c3cn(C)c4ccccc34)n2)c(OC)cc1N(C)CCN(C)C [osimertinib, reference compound] |  |  |  | 3,000 fold
6 | C=CCn1cc(C(=O)Nc2ccc(Oc3ccnc(N)c3C#CCC3CCNCC3)c(F)c2)c(=O)n(CC=C)c1=O [Example 71, 1,3-dialyl-N-(4-(2-amino-3-(3-(piperidin-4-yl)prop-1-ynyl)pyridin-4-yloxy)-3-fluorophenyl)-2,4-dioxo-1,2,3,4-tetrahydropyrimidine-5-carboxamide] | < 100 | < 100 | < 10 | 
7 | Cc1nc(Cn2cc(C(=O)Nc3ccc(Oc4ccnc(N)c4C#CCN4CCOCC4)c(F)c3)c(=O)n(-c3ccc(F)cc3)c2=O)cs1 [Example 40, N-(4-((2-amino-3-(3-morpholinoprop-1-yn-1-yl)pyridin-4-yl)oxy)-3-fluorophenyl)-3-(4-fluorophenyl)-1-((2-methylthiazol-4-yl)methyl)-2,4-dioxo-1,2,3,4-tetrahydropyrimidine-5-carboxamide] | < 1000 | < 100 | < 100 | 
8 | Cc1nc(Cn2cc(C(=O)Nc3ccc(Oc4ccnc(N)c4C#CC(C)(C)N4CCN(C)CC4)c(F)c3)c(=O)n(-c3ccc(F)cc3)c2=O)cs1 [Example 42, N-(4-((2-amino-3-(3-methyl-3-(4-methylpiperazin-1-yl)but-1-yn-1-yl)pyridin-4-yl)oxy)-3-fluorophenyl)-3-(4-fluorophenyl)-1-((2-methylthiazol-4-yl)methyl)-2,4-dioxo-1,2,3,4-tetrahydropyrimidine-5-carboxamide] | < 100 | < 1000 | < 100 | 

Now from value to compound, other results behind:

Row | IC50 [1] [nM] | IC50 [2] [nM] | IC50 [3] [nM] | Compound | fold higher resistance than the parental cells, HCC827/OR [4]
9 | < 10 | < 10 | < 10 | CC(C)n1cc(C(=O)Nc2ccc(Oc3ccnc(N)c3C#CC(=O)N3CCOCC3)c(F)c2)c(=O)n(-c2ccc(F)cc2)c1=O [Example 14, N-(4-(2-amino-3-(3-morpholino-3-oxoprop-1-ynyl)pyridin-4-yloxy)-3-fluorophenyl)-3-(4-fluorophenyl)-1-isopropyl-2,4-dioxo-1,2,3,4-tetrahydropyrimidine-5-carboxamide] | 
10 | < 10 | < 10 | < 10 | CC(C)n1cc(C(=O)Nc2ccc(Oc3ccnc(N)c3C#CCN3CCNCC3)c(F)c2)c(=O)n(-c2ccc(F)cc2)c1=O [Example 17] | 
11 | < 10000 | < 100 | < 10 | Cc1noc(C)c1-c1c(Oc2ccc(NC(=O)c3cn(C(C)C)c(=O)n(-c4ccc(F)cc4)c3=O)cc2F)ccnc1N [Example 11] | 
12 | < 10000 | < 100 | < 10 | CC(C)n1cc(C(=O)Nc2ccc(Oc3ccnc(N)c3-c3ccc(Oc4ccccc4)cc3)c(F)c2)c(=O)n(-c2ccc(F)cc2)c1=O [Example 10] | 
13 | < 100 | < 10 | < 10 | Nc1nccc(Oc2ccc(NC(=O)c3c[nH]c(=O)n(-c4ccc(F)cc4)c3=O)cc2F)c1C#CCC1CCNCC1 [Example 53, N-(4-(2-amino-3-(3-(piperidin-4-yl)prop-1-ynyl)pyridin-4-yloxy)-3-fluorophenyl)-3-(4-fluorophenyl)-2,4-dioxo-1,2,3,4-tetrahydropyrimidine-5-carboxamide] | 
14 | < 1000 | < 10 | < 10 | CC(C)n1cc(C(=O)Nc2ccc(Oc3ccnc(N)c3C#CC(C)(C)N3CCNCC3)c(F)c2)c(=O)n(-c2ccc(F)cc2)c1=O [Example 19, N-(4-(2-amino-3-(3-methyl-3-(piperazin-1-yl)but-1-ynyl)pyridin-4-yloxy)-3-fluorophenyl)-3-(4-fluorophenyl)-1-isopropyl-2,4-dioxo-1,2,3,4-tetrahydropyridmidine-5-carboxamide] | 
